# In EPA's ToxValDB 9.5:
# “And” between values parts separate entries of the source, which are not always exact repeats. Equal entries are not always repeated.
# Legend:
# Rattus norvegicus [1] = conditions: oral, gavage
# Rattus norvegicus [2] = conditions: for LOEL / NOEL: Hershberger, gavage; for LEL: uterotrophic, Active
# Rattus norvegicus [3] = conditions: subchronic; duration: 13 weeks; oral; diet; M/F; Wistar; hematological
# Mus musculus = conditions: inhalation
# Rattus norvegicus [4] = tested on: Rattus norvegicus
# Rattus norvegicus [5] = conditions: subchronic, oral, diet, Fischer 344, Body Weight Changes: decrease + Food Consumption: decrease + Hematology: Hgb decrease, Plt increase + Blood Chemistry: gamma-GTP increase, …
# [6] = short-term, duration: 28 days, F, Crl:CD(SD), Kidney: Kidney, Right, Pelvis, Dilation + Liver: Liver Weight, Relative + Liver: Liver, Large
# [7] = short-term, duration: 28 days, F, Crl:CD(SD), Whole Body: Clinical Observations
# [8] = short-term, duration: 28 days, M, Crl:CD(SD), Liver: Hepatocellular Hypertrophy + Liver: Liver Weight, Relative + Liver: Liver, Large
# [9] = duration: 10 days, oral, Sprague-Dawley, active + Antiandrogenic + anti-androgenic
# [10] = duration: 3 days, injection, subcutaneous
# [11] = reproduction developmental, duration: 7 days, F, Sprague-Dawley, generation: P0, P0: Developmental: Whole Body: Litter Size + P0: Developmental: Whole Body: Male Pups per Pups Sexed
# [12] = short-term, duration: 21 days, M, Sprague-Dawley, Endocrine: Multi-Organ: Estradiol, Serum + Endocrine: Multi-Organ: Follicular Stimulating Hormone (FSH), Serum + Endocrine: Multi-Organ: …
# [13] = short-term, duration: 21 days, M, Sprague-Dawley, Endocrine: Multi-Organ: Estradiol, Serum + Endocrine: Multi-Organ: Follicular Stimulating Hormone (FSH), Serum + Metabolic: Multi-Organ: …
# [14] = short-term, duration: 21 days, M, Sprague-Dawley, Endocrine: Multi-Organ: Testosterone (T), Serum + Reproductive: Epididymis: Epididymis Weight, Absolute + Reproductive: Testis: Testis …
# [15] = duration: 10 days, oral, Wistar, active + Negative + Antiandrogenic + anti-androgenic
# [16] = duration: 10 days, oral, Sprague-Dawley, active + Negative + Antiandrogenic + anti-androgenic + negative
# [17] = chronic, duration: 14 weeks, B6C3F1
# [18] = duration: 7 days, oral, Sprague-Dawley, active + Antiandrogenic + anti-androgenic
compound,measurement,setting,value
CCC(F)(F)C(F)(F)C(F)(F)C(F)(F)C(F)(F)C(F)(F)F [1-(Perfluorohexyl)ethane],NOAEL,"Rattus norvegicus [1]; short-term, duration: 28 days, F, Crl:CD(SD), Adrenal: Adrenal Gland Histopathology + Adrenal: Adrenal Gland Weight, Absolute + Adrenal: Adrenal Gland Weight, Relative + Bladder: Urinary…",200 mg/kg-day
same,LOAEL,Rattus norvegicus [1]; [6],200 mg/kg-day
same,NOAEL,Rattus norvegicus [1]; [6],40 mg/kg-day
same,LOAEL,Rattus norvegicus [1]; [7],40 mg/kg-day
same,NOAEL,Rattus norvegicus [1]; [7],8 mg/kg-day
same,NOAEL,"Rattus norvegicus [1]; short-term, duration: 28 days, M, Crl:CD(SD), Adrenal: Adrenal Gland Histopathology + Adrenal: Adrenal Gland Weight, Absolute + Adrenal: Adrenal Gland Weight, Relative + Blood: Activated…",200 mg/kg-day
same,LOAEL,Rattus norvegicus [1]; [8],200 mg/kg-day
same,NOAEL,Rattus norvegicus [1]; [8],40 mg/kg-day
CCCCC(CC)COC(=O)c1ccccc1C(=O)O (configuration not stated) [MEHP],LOEL,Rattus norvegicus [2]; [9],50 mg/kg-day
same,NOEL,Rattus norvegicus [2]; [9],10 mg/kg-day
CCCCCCCCCc1ccccc1O [n-Nonylphenol],LOEL,"Rattus norvegicus [2]; duration: 10 days, oral, Sprague-Dawley, active + Negative + Antiandrogenic + anti-androgenic + slight delay in timing of PPS, but only 33% of rats had complete separation by end of…",100 mg/kg-day and 160 mg/kg-day
same,LEL,Rattus norvegicus [2]; [10],100 mg/kg-day
CCCCCCCCCCCCc1ccc(O)cc1 [4-Dodecylphenol],LEL,Rattus norvegicus [2]; [10],40 mg/kg-day and 39.7 mg/kg-day
CCCCOCCOCCOCc1cc2c(cc1CCC)OCO2 [Piperonyl butoxide],NOEL,"Rattus norvegicus [2]; duration: 10 days, oral, Sprague-Dawley, inactive + Negative + Negative + anti-androgenic + see note",500 mg/kg-day
O=C(O)C(F)(F)C(F)(F)C(F)(F)C(F)(F)C(F)(F)C(F)(F)C(F)(F)C(F)(F)C(F)(F)C(F)(F)C(F)(F)C(F)(F)F [Perfluorotridecanoic acid],NOAEL,"Rattus norvegicus [1]; developmental, duration: 7 days, M, Sprague-Dawley, generation: F1, F1: Developmental: Testis: Fetal Leydig cell number + F1: Developmental: Trunk: Anogenital Distance + F1: Developmental: Whole Body: Pup …",5 mg/kg-day
same,LOAEL,Rattus norvegicus [1]; [11],10 mg/kg-day
same,NOAEL,Rattus norvegicus [1]; [11],5 mg/kg-day
same,LOAEL,"Rattus norvegicus [1]; reproduction developmental, duration: 7 days, F, Sprague-Dawley, generation: P0, P0: Developmental: Whole Body: Litter Size + P0: Developmental: Whole Body: Male Pups per Pups Sexed + P0: Reproductive: Whole Body: Birth …",1 mg/kg-day
same,LOAEL,"Rattus norvegicus [1]; reproduction developmental, duration: 7 days, F, Sprague-Dawley, generation: P0, P0: Reproductive: Whole Body: Birth rate",1 mg/kg-day
same,NOAEL,"Rattus norvegicus [1]; reproduction developmental, duration: 7 days, F, Sprague-Dawley, generation: P0, P0: Whole Body: Whole Body: Clinical Observations, Unspecified + P0: Whole Body: Whole Body: Maternal Body Weight",10 mg/kg-day
same,LOAEL,"Rattus norvegicus [1]; reproduction developmental, duration: 7 days, M, Sprague-Dawley, generation: F1, F1: Endocrine: Multi-Organ: Testosterone (T), Serum",1 mg/kg-day
same,LOAEL,Rattus norvegicus [1]; [12],5 mg/kg-day
same,NOAEL,Rattus norvegicus [1]; [12],1 mg/kg-day
same,LOAEL,Rattus norvegicus [1]; [13],10 mg/kg-day
same,NOAEL,Rattus norvegicus [1]; [13],5 mg/kg-day
same,LOAEL,Rattus norvegicus [1]; [14],5 mg/kg-day
same,NOAEL,Rattus norvegicus [1]; [14],1 mg/kg-day
same,NOAEL,"Rattus norvegicus [1]; short-term, duration: 21 days, M, Sprague-Dawley, Whole Body: Whole Body: Body Weight Change + Whole Body: Whole Body: Body Weight, Absolute + Whole Body: Whole Body: Clinical Observation …",10 mg/kg-day
C[C@H]1CCCC(=O)CCCCCc2cc(O)cc(O)c2C(=O)O1 [Zearalanone],LEL,"Rattus norvegicus [2]; duration: 3 days, oral",0.18 mg/day
CCCCCOC(=O)c1ccccc1C(=O)OCCCCC [Dipentyl phthalate],LOEL,Rattus norvegicus [2]; [15],1000 mg/kg-day
same,NOEL,Rattus norvegicus [2]; [15],200 mg/kg-day
same,NOEL,"Rattus norvegicus [1]; developmental, M, Sprague-Dawley, generation: F1, F1: Testosterone (Testes) production",50 mg/kg-day
[Sn] [Tin],NOAEL,Rattus norvegicus [3],32 mg/kg-day
"N#Cc1c(Cl)cccc1Cl [2,6-Dichlorobenzonitrile]",LOEL,Rattus norvegicus [2]; [16],150 mg/kg-day
same,NOEL,Rattus norvegicus [2]; [16],60 mg/kg-day
"C=CC=C [1,3-Butadiene]",LOAEL,Mus musculus; [17],5530 mg/m3
same,NOAEL,Mus musculus; [17],2770 mg/m3
same,NOAEL,"Mus musculus; reproduction developmental, duration: 5 days, M, B6C3F1",442 mg/m3
same,NOAEL,"Mus musculus; reproduction developmental, duration: 10 days, CD1, generation: F1",88.5 mg/m3
same,LOAEL,"Rattus norvegicus [4]; repeat dose other, inhalation, Sprague-Dawley",> 17700 mg/m3 and 17700 mg/m3
same,NOAEL,"Rattus norvegicus [4]; reproduction developmental, duration: 10 days, inhalation, Sprague-Dawley, generation: F1",2210 mg/m3
same,LOAEL,"Rattus norvegicus [4]; reproduction developmental, inhalation, Sprague-Dawley",3320 mg/m3
same,NOAEL,"Rattus norvegicus [4]; reproduction developmental, inhalation, Sprague-Dawley, generation: F0",664 mg/m3
Cc1c(O)ccc2c1CC[C@@H]1[C@@H]2CC[C@]2(C)[C@@H](O)CC[C@@H]12 [4-Methylestradiol],LEL,Rattus norvegicus [2]; [10],0.005 mg/day
COc1ccc(C(=O)c2ccccc2)c(O)c1 [2-Hydroxy-4-methoxybenzophenone],LEL,"Rattus norvegicus [2]; duration: 4 days, oral, diet",1520 mg/kg-day
same,NOEL,Rattus norvegicus [5]; F,< 196 mg/kg-day
same,NOEL,Rattus norvegicus [5]; M/F,< 300 mg/kg-day
C#C[C@@]1(OC(=O)CC)C[C@@H]2CC[C@@H]3[C@H](CC[C@@]4(C)[C@H]3CC[C@]4(C#C)OC(=O)CC)[C@@]2(C)C1 [Anordrin],LEL,"Rattus norvegicus [2]; duration: 3 days, oral",0.0025 mg/day
"O=C1CCC(=O)N1c1cc(Cl)cc(Cl)c1 [N-(3,5-Dichlorophenyl)succinimide]",LOEL,Rattus norvegicus [2]; [18],100 mg/kg-day
same,NOEL,Rattus norvegicus [2]; [18],50 mg/kg-day
"CC(C)(C)c1ccc(O)cc1 [4-(1,1-Dimethylethyl)phenol]",LEL,Rattus norvegicus [2]; [10],100 mg/kg-day and 99.2 mg/kg-day
same,LOAEL,"Rattus norvegicus [4]; short-term, duration: 14 days, oral, gavage, Crj:CD",250 mg/kg-day
